The results in this text go back to BindingDB's records for doi:10.1021/jm000022w (Cor Therapeutics, 2000).

Molecules are shown by their SMILES. Positions of bridges follow the written chain, without caps; N, C: chain ends. Non-standard residues stand in square brackets, D forms with d. Residues, ends and D or L forms follow the SMILES beside them. Phe(4-CH2NH2) = NCc1ccc(C[C@H](N)C(=O)O)cc1; Thz(5,5-Me2) = CC1(C)SCN[C@@H]1C(=O)O; NMeR = CN[C@@H](CCCNC(=N)N)C(=O)O

A short description of test [1]: Inhibition of human platelet aggregation in platelet rich plasma.
Test [2] can be described thus: Inhibition of alpha IIb beta-3 integrin mediated platelet aggregation.
Test [3] in a line: Inhibition of human platelet aggregation in platelet rich plasma (PRP).
Test [4] in a line: Inhibition canine platelet aggregation in platelet rich plasma (PRP).
Test [5] can be described thus: Inhibition of ADP-induced platelet aggregation.
Test [6] is described as follows: Inhibition of collagen-induced platelet aggregation.
Test [7] can be described thus: Inhibition of human gel filtered platelet aggregation induced by ADP.
Test [8] is described as follows: inhibition of platelet aggregation in human platelet rich plasma.
Test [9] in a line: Inhibition of human platelet aggregation.
The nature of test [10]: Inhibition of canine platelet aggregation.
A short description of test [11]: Inhibition of ADP-induced platelet aggregation. This is another data set of the same source.
Test [12] in a line: Inhibition of alpha IIb beta-3 integrin mediated platelet aggregation. This is another data set of the same source.
Test [13] is described as follows: Inhibition of human gel filtered platelet aggregation mediated by 10 uM ADP.

As for `O=C(NC[C@H](NS(=O)(=O)c1ccccc1)C(=O)O)c1cnc(N2CCN(C3CCNCC3)CC2)s1` [2-Benzenesulfonylamino-3-{[2-(4-piperidin-4-yl-piperazin-1-yl)-thiazole-5-carbonyl]-amino}-propionic acid (UR-12947)], in test [1], it took 3.5 nM to reach half-maximal inhibition (IC50).
As to `CCOC(=O)CC1CCN(C(=O)C(C)(C)[C@@H](CC)NC(=O)c2ccc(C(=N)N3CCSC3)cc2F)CC1` [(1-{3-[2-Fluoro-4-(imino-thiazolidin-3-yl-methyl)-benzoylamino]-2,2-dimethyl-pentanoyl}-piperidin-4-yl)-acetic acid ethyl ester(NSL-96184)], the IC50 – broadly, the concentration at which inhibition is half-maximal – in test [2] was 45 nM.
As to `O=C(CCCC1CCNCC1)NCC(=O)N[C@H](CCc1c[nH]c2ccccc12)C(=O)O` [L-703014], the IC50 in test [3] was 94 nM.
The molecule `N=C(N)c1ccc(CCCCC(=O)N[C@@H](CC(=O)O)C(=O)N[C@@H](Cc2ccccc2)C(=O)O)cc1` [SC-52012] returned an IC50 in test [4] of 72 nM.
Regarding `CCCCOC(=O)N[C@@H](CNC(=O)C1CC(OCc2ccc(C(=N)N)cc2)=NO1)C(=O)OC` (stereo partly drawn) [2-Butoxycarbonylamino-3-{[3-(4-carbamimidoyl-benzyloxy)-4,5-dihydro-isoxazole-5-carbonyl]-amino}-propionic acid methyl ester(XU 065)], the IC50 in test [5] turned out to be 50 nM.
On to `CCOC(=O)CCNC(=O)N[C@H]1CCN(c2ccc(C(=N)N)cc2)C1=O` [SC-57099B], for which the IC50 in test [6] was 130 nM; in test [7] it was 80 nM.
`CCOC(=O)COC1CCN(C(=O)[C@H](C)NC(=O)c2ccc(C(=N)NO)cc2)CC1` [((S)-1-{2-[4-(N-Hydroxycarbamimidoyl)-benzoylamino]-propionyl}-piperidin-4-yloxy)-acetic acid ethyl ester]: in test [8], the midpoint of inhibition, the IC50, lay at 38 nM.
In the case of `CC(=O)N[C@H]1CSSC[C@@H](C(N)=O)NC(=O)[C@H](CC(=O)O)NC(=O)CNC(=O)[C@H](CCCNC(=N)N)N(C)C1=O` [[16-Acetylamino-4-carbamoyl-13-(3-guanidino-propyl)-14-methyl-6,9,12,15-tetraoxo-1,2-dithia-5,8,11,14-tetraaza-cycloheptadec-7-yl]-acetic acid (SK&F 106760)] (Ac-C[NMeR]GDC-NH2; disulfide 1-5), the IC50 in [9] is 230 nM; in [10], 90 nM.
`N=C(N)c1ccc(C(=O)Nc2ccc3c(c2)C(=O)N(CCC(=O)O)Cc2nnnn2-3)cc1` [3-[8-(4-Carbamimidoyl-benzoylamino)-6-oxo-4H,6H-1,2,3,5,10b-pentaaza-benzo[e]azulen-5-yl]-propionic acid(G7453)] registered an IC50 in test [11] of 54 nM.
In [12], `C[C@H](CC(=O)O)NC(=O)CN1CCC[C@@H](CCC2CCNCC2)C1=O` [3-{2-[2-Oxo-3-(2-piperidin-4-yl-ethyl)-piperidin-1-yl]-acetylamino}-butyric acid (L-734217)] yielded an IC50 of 23 nM.
In turn, `CC(=O)N[C@H]1CSSC[C@@H](C(=O)O)NC(=O)[C@H](CC(=O)O)NC(=O)CNC(=O)[C@H](Cc2ccc(CN)cc2)NC(=O)[C@H]2N(CSC2(C)C)C(=O)[C@H](CC(N)=O)NC1=O` [8-Acetylamino-22-(4-aminomethyl-benzyl)-5-carbamoylmethyl-16-carboxymethyl-1,1-dimethyl-4,7,15,18,21,24-hexaoxo-icosahydro-2,10,11-trithia-3a,6,14,17,20,23-hexaaza-cyclopentacyclotricosene-13-carboxylic acid (MK-0852)] (Ac-CN[Thz(5,5-Me2)][Phe(4-CH2NH2)]GDC-OH; disulfide 1-7) gave an IC50 in test [13] of 26 nM.
